Test results reported in patent US10294202B2, “Pyrrolidinones as herbicides” (FMC Corporation, priority 2013, dated 2019).

Tests used:
canarygrass = test: Test D pre-/postemergence herbicide test; format: in vivo, Phalaris minor; details: for Plant response rating: Canarygrass, scale 0 to 100; for Plant response rating, Canarygrass: scale 0 to 100 (0 no effect, 100 complete control)
Text: Seeds of plant species selected from bluegrass (annual bluegrass, Poa annua), blackgrass (Alopecurus myosuroides), canarygrass (littleseed canarygrass, Phalaris minor), chickweed (common chickweed, Stellaria media), galium (catchweed bedstraw, Galium aparine), bromegrass, downy (downy bromegrass, Bromus tectorum), field poppy (Papaver rhoeas), field violet (Viola arvensis), foxtail, green (green foxtail, Setaria viridis), deadnettle (henbit deadnettle, Lamium amplexicaule), ryegrass, Italian (Italian ryegrass, Lolium multiflorum), kochia (Kochia scoparia), lambsquarters (Chenopodium album), oilseed rape (Brassica napus), pigweed (Amaranthus retroflexus), chamomile (scentless chamomile, Matricaria inodora), Russian thistle (Salsola kali), speedwell (bird's-eye speedwell, Veronica persica), barley, spring (spring barley, Hordeum vulgare), wheat, spring (spring wheat, Triticum aestivum), buckwheat, wild (wild buckwheat, Polygonum convolvulus), mustard, wild (wild mustard, Sinapis arvensis), oat, wild (wild oat, Avena fatua), radish, wild (wild radish, Raphanus raphanistrum), […]), barley, winter (winter barley, Hordeum vulgare), and wheat, winter (winter wheat, Triticum aestivum) were planted into a silt loam soil and treated preemergence with test chemicals formulated in a non-phytotoxic solvent mixture which included a surfactant. At the same time, these species were planted in pots containing Redi-Earth® planting medium (Scotts Company, 14111 Scottslawn Road, Marysville, Ohio 43041) comprising spaghnum peat moss, vermiculite, wetting agent and starter nutrients and treated with postemergence applications of the test chemicals formulated in the same manner. Plants ranged in height from 2 to 18 cm (1- to 4-leaf stage). Treated plants and controls were maintained in a controlled growth environment for 7 to 21 days after which time all species were compared to controls and visually evaluated. Plant response ratings, summarized in Table D, are based on a scale of 0 to 100 where 0 is no effect and 100 is complete control. A dash (-) response means no test result.

kochia = test: Test C pre-/postemergence herbicide test; format: in vivo, Kochia scoparia
Text: Seeds of plant species selected from blackgrass (Alopecurus myosuroides), ryegrass, Italian (Italian ryegrass, Lolium multiflorum), wheat (winter wheat, Triticum aestivum), galium (catchweed bedstraw, Galium aparine), corn (Zea mays), crabgrass, large (large crabgrass, Digitaria sanguinalis), foxtail, giant (giant foxtail, Setaria faberii), johnsongrass (Sorghum halepense), lambsquarters (Chenopodium album), morningglory (Ipomoea coccinea), nutsedge, yellow (yellow nutsedge, Cyperus esculentus), pigweed (Amaranthus retroflexus), ragweed (common ragweed, Ambrosia elatior), soybean (Glycine max), barnyardgrass (Echinochloa crus-galli), oilseed rape (Brassica napus), waterhemp (common waterhemp, Amaranthus rudis), kochia (Kochia scoparia), oat, wild (wild oat, Avena fatua), surinam grass (Brachiaria decumbens), foxtail, green (green foxtail, Setaria viridis), goosegrass (Eleusine indica), bromegrass, downy (downy bromegrass, Bromus tectorum), nightshade (eastern black nightshade, Solanum ptycanthum), cocklebur (common cocklebur, Xanthium strumarium), cupgrass, woolly (woolly cupgrass, Eriochloa villosa), bermudagrass (Cynodon dactylon), sunflower, (common oilseed sunflower, Helianthus annuus), Russian thistle (Salsola kali) and velvetleaf (Abutilon theophrasti) were planted into a blend of loam soil and sand and treated preemergence with test chemicals formulated in a non-phytotoxic solvent mixture which included a surfactant. At the same time, plants selected from these crop and weed species and also barley (winter barley, Hordeum vulgare), […]), chickweed (common chickweed, Stellaria media), deadnettle (henbit deadnettle, Lamium amplexicaule), and canarygrass (littleseed canarygrass, Phalaris minor) were planted in pots containing Redi-Earth® planting medium (Scotts Company, 14111 Scottslawn Road, Marysville, Ohio 43041) comprising spaghnum peat moss, vermiculite, wetting agent and starter nutrients and treated with postemergence applications of test chemicals formulated in the same manner. Plants ranged in height from 2 to 18 cm (1- to 4-leaf stage) for postemergence treatments. Treated plants and controls were maintained in a greenhouse for 13 to 15 days, after which time all species were compared to controls and visually evaluated. Plant response ratings, summarized in Table C, are based on a scale of 0 to 100 where 0 is no effect and 100 is complete control. A dash (-) response means no test result.

[1] = Postemergence, 31 g ai/ha, scale 0 (no effect) to 100 (complete control)
[2] = Postemergence, 62 g ai/ha, scale 0 to 100 (0 no effect, 100 complete control)
[3] = Postemergence, 125 g ai/ha, scale 0 to 100 (0 no effect, 100 complete control)
[4] = Postemergence, 250 g ai/ha, scale 0 to 100 (0 no effect, 100 complete control)
[5] = Preemergence, 62 g ai/ha, scale 0 to 100
[6] = Preemergence, 125 g ai/ha, scale 0 to 100 (0 no effect, 100 complete control)
[7] = Postemergence, 31 g ai/ha, scale 0 to 100 (0 no effect, 100 complete control)
[8] = Postemergence, 62 g ai/ha, scale 0 (no effect) to 100 (complete control)

SMILES: O=C1NCC(c2ccc(F)c(F)c2)C1C(=O)Nc1ccccc1C(F)(F)F (racemic) [Compound 6]
- Plant response rating (canarygrass; Postemergence, 16 g ai/ha): 0
- Plant response rating (canarygrass; Postemergence, 31 g ai/ha): 0
- Plant response rating (canarygrass; Postemergence, 62 g ai/ha): 0
- Plant response rating (canarygrass; Postemergence, 125 g ai/ha): 0
- Plant response rating (canarygrass; Postemergence, 250 g ai/ha): 0
- Plant response rating, Canarygrass (canarygrass; Preemergence, 62 g ai/ha): 10
- Plant response rating, Canarygrass (canarygrass; Preemergence, 16 g ai/ha): 0
- Plant response rating, Canarygrass (canarygrass; Preemergence, 31 g ai/ha): 0
- Plant response rating (canarygrass; Preemergence, 125 g ai/ha): 20
- Plant response rating (canarygrass; Preemergence, 250 g ai/ha): 20

SMILES: O=C1NCC(c2ccc(F)c(C(F)(F)F)c2)C1C(=O)Nc1cccc(F)c1F (racemic) [Compound 77]
- Plant response rating, Canarygrass (canarygrass; Preemergence, 62 g ai/ha): 45
- Plant response rating, Canarygrass (canarygrass; Preemergence, 31 g ai/ha): 25
- Plant response rating (canarygrass; Preemergence, 125 g ai/ha): 65
- Plant response rating (canarygrass; Preemergence, 250 g ai/ha): 85

SMILES: O=C1NCC(c2ccc(F)c(F)c2)C1C(=O)Nc1cccc(F)c1F (racemic) [Compound 101]
- Plant response rating, Kochia (kochia; [1]): 45
- Plant response rating, Kochia (kochia; [2]): 30
- Plant response rating, Kochia (kochia; [3]): 50
- Plant response rating, Kochia (kochia; [4]): 50

SMILES: Cc1c(F)cccc1NC(=O)C1C(=O)NCC1c1ccc(F)c(F)c1 (racemic) [Compound 106]
- Plant response rating, Kochia (kochia; [1]): 0
- Plant response rating, Kochia (kochia; [2]): 40
- Plant response rating, Kochia (kochia; [3]): 30
- Plant response rating, Kochia (kochia; [4]): 35

SMILES: Cc1ccccc1NC(=O)C1C(=O)NCC1c1cccc(C(F)(F)F)c1 (racemic) [Compound 109]
- Plant response rating, Kochia (kochia; [1]): 0
- Plant response rating, Kochia (kochia; [2]): 0
- Plant response rating, Kochia (kochia; [3]): 0
- Plant response rating, Kochia (kochia; [4]): 0

SMILES: O=C1NCCC1C(=O)N(c1ccc(F)c(F)c1)c1ccccc1F (stereo not shown) [Compound 5, N-(3,4-difluorophenyl)-N-(2-fluorophenyl)-2-oxo-3-pyrrolidinecarboxamide]
- Plant response rating, Kochia (kochia; [5]): 0
- Plant response rating, Kochia (kochia; [6]): 0

SMILES: O=C1NCC(c2cc(F)c(F)c(F)c2)C1C(=O)Nc1cccc(F)c1F (stereo not shown) [Compound 48]
- Plant response rating, Kochia (kochia; Postemergence, 16 g ai/ha, scale 0 to 100 (0 no effect, 100 complete control)): 0
- Plant response rating, Kochia (kochia; [1]): 10
- Plant response rating, Kochia (kochia; [2]): 10
- Plant response rating, Kochia (kochia; [3]): 20
- Plant response rating, Kochia (kochia; [5]): 10
- Plant response rating, Kochia (kochia; [6]): 10
- Plant response rating, Kochia (kochia; Preemergence, 16 g ai/ha, scale 0 to 100): 0

SMILES: O=C1NCC(c2cc(F)c(F)cc2F)C1C(=O)Nc1cccc(F)c1F (stereo not shown) [Compound 50]
- Plant response rating, Kochia (kochia; [1]): 0
- Plant response rating, Kochia (kochia; [2]): 0
- Plant response rating, Kochia (kochia; [3]): 0
- Plant response rating, Kochia (kochia; [4]): 0
- Plant response rating (canarygrass; Postemergence, 16 g ai/ha): 0
- Plant response rating (canarygrass; Postemergence, 31 g ai/ha): 0
- Plant response rating (canarygrass; Postemergence, 62 g ai/ha): 0
- Plant response rating (canarygrass; Postemergence, 125 g ai/ha): 0
- Plant response rating, Canarygrass (canarygrass; Preemergence, 62 g ai/ha): 0
- Plant response rating, Canarygrass (canarygrass; Preemergence, 16 g ai/ha): 0
- Plant response rating, Canarygrass (canarygrass; Preemergence, 31 g ai/ha): 0
- Plant response rating (canarygrass; Preemergence, 125 g ai/ha): 0

SMILES: O=C1NCC(c2ccc(Cl)c(F)c2)C1C(=O)Nc1cccc(F)c1F (stereo not shown) [Compound 52]
- Plant response rating, Kochia (kochia; [1]): 30
- Plant response rating, Kochia (kochia; [2]): 35
- Plant response rating, Kochia (kochia; [3]): 40
- Plant response rating, Kochia (kochia; [4]): 50
- Plant response rating, Kochia (kochia; [5]): 10
- Plant response rating, Kochia (kochia; [6]): 15
- Plant response rating (canarygrass; Postemergence, 16 g ai/ha): 0
- Plant response rating (canarygrass; Postemergence, 31 g ai/ha): 0
- Plant response rating (canarygrass; Postemergence, 62 g ai/ha): 0
- Plant response rating (canarygrass; Postemergence, 125 g ai/ha): 0
- Plant response rating (canarygrass; Postemergence, 250 g ai/ha): 0
- Plant response rating, Canarygrass (canarygrass; Preemergence, 62 g ai/ha): 0
- Plant response rating, Canarygrass (canarygrass; Preemergence, 16 g ai/ha): 0
- Plant response rating, Canarygrass (canarygrass; Preemergence, 31 g ai/ha): 0
- Plant response rating (canarygrass; Preemergence, 125 g ai/ha): 0
- Plant response rating (canarygrass; Preemergence, 250 g ai/ha): 0

SMILES: O=C1NCC(c2ccc(F)c(Cl)c2)C1C(=O)Nc1ccccc1F (stereo not shown) [Compound 60]
- Plant response rating, Kochia (kochia; [1]): 0
- Plant response rating, Kochia (kochia; [2]): 10
- Plant response rating, Kochia (kochia; [3]): 45
- Plant response rating, Kochia (kochia; [5]): 0
- Plant response rating, Kochia (kochia; [6]): 0

SMILES: O=C1NCC(c2cccc(OC(F)(F)F)c2)C1C(=O)Nc1ccccc1F (stereo not shown) [Compound 69]
- Kochia plant response rating (kochia; Preemergence, 31 g ai/ha, scale 0 to 100, 0 is no effect and 100 is complete control): 0
- Plant response rating, Kochia (kochia; [5]): 0
- Plant response rating, Kochia (kochia; [6]): 0
- Plant response rating (scale of 0 to 100), Kochia (kochia; Preemergence, 250 g ai/ha): 25

SMILES: O=C1NCC(c2ccc(C(F)(F)F)cc2)C1C(=O)Nc1ccccc1F (stereo not shown) [Compound 79, N-(2-fluorophenyl)-2-oxo-4-[4-(trifluoromethyl)phenyl]-3-pyrrolidinecarboxamide]
- Plant response rating, Kochia (kochia; [1]): 5
- Plant response rating, Kochia (kochia; [2]): 55
- Plant response rating, Kochia (kochia; [3]): 55

SMILES: O=C1NCC(c2cccc(OC(F)F)c2)C1C(=O)Nc1cccc(F)c1F (stereo not shown) [Compound 224]
- Plant response rating, Kochia (kochia; [7]): 0
- Plant response rating, Kochia (kochia; [8]): 40
- Plant response rating, Kochia (kochia; [3]): 50
- Plant response rating, Kochia (kochia; [4]): 70

SMILES: O=C1NCC(c2ccc(C(F)(F)F)cc2)C1C(=O)Nc1ccccc1F (stereo not shown) [Compound 231]
- Plant response rating (canarygrass; Postemergence, 31 g ai/ha): 0
- Plant response rating (canarygrass; Postemergence, 62 g ai/ha): 0
- Plant response rating (canarygrass; Postemergence, 125 g ai/ha): 0
- Plant response rating (canarygrass; Postemergence, 250 g ai/ha): 0
- Plant response rating, Canarygrass (canarygrass; Preemergence, 62 g ai/ha): 15
- Plant response rating, Canarygrass (canarygrass; Preemergence, 125 g ai/ha): 20
- Plant response rating, Canarygrass (canarygrass; Preemergence, 31 g ai/ha): 0
- Plant response rating (canarygrass; Preemergence, 250 g ai/ha): 35

SMILES: O=C1NCC(c2cccc(Br)c2)C1C(=O)Nc1ccc(F)c(F)c1F (stereo not shown) [Compound 310]
- Plant response rating, Kochia (kochia; [7]): 40
- Plant response rating, Kochia (kochia; [8]): 50
- Plant response rating, Kochia (kochia; [4]): 80

SMILES: O=C1NCC(c2ccc(F)c(F)c2)C1C(=O)Nc1ccc(F)c(F)c1F (stereo not shown) [Compound 346]
- Plant response rating, Kochia (kochia; [7]): 45
- Plant response rating, Kochia (kochia; [8]): 50
- Plant response rating, Kochia (kochia; [3]): 45
- Plant response rating, Kochia (kochia; [4]): 40
